Experimental data from US20190290623A1, “USE OF TIOTROPIUM BROMIDE TO PREVENT PULMONARY OXYGEN TOXICITY” (priority 2018, published 2019).
“Also recorded” adds a separate entry of the source.

Tests used:
Format in all cases: in vivo
[1] = system: swine exposed to 1.5 ATA hyperbaric oxygen for 17.5 hr; test: Experiment 1 shallow exposure simulation: pulmonary capacities; details: 1.5 ATA O2 17.5 hr, percent change from baseline
Description: Experiment 1 is designed to evaluate the efficacy of tiotropium bromide administered pre-dive in reducing decrements in pulmonary function due to PO2T following a 17.5 hour, 1.5 ATA hyperbaric oxygen exposure. This dive profile was selected because it was of sufficient duration to elicit persistent pulmonary function decrement in humans.
The swine were anesthetized with propofol (20 cc, I.V. target, adjusted as needed to optimize sedation), intubated and ventilated. Anesthetized swine were shaved, then ECG and EEG electrodes were placed. Animals were then paralyzed with Atracurium Besylate (50 mg, IV) for accurate pulmonary function measurements of quasi-static and dynamic compliance.
Following baseline pulmonary function measurements, the swine were randomized to receive equivalent volumes of normal saline or tiotropium bromide (18 mcg) via nebulizer. The swine were then ventilated until muscle tone was regained. Sedation was discontinued and the swine were extubated, transported to the hyperbaric chamber and allowed to recover until able to independently stand. Once able to stand, animals had electrode leads attached and IV tubing connected to the ear vein catheter. The chamber hatch was then closed and the swine compressed to 1.5 ATA on air.
(§1) Next, the swine were switched to 100% oxygen breathing gas and remained at 1.5 ATA for 17.5 hr. At the end of the 17.5 hour 1.5 ATA oxygen exposure, swine surfaced at a rate of 1 ATA/minutes (ATA/min), were transferred to a Panepinto sling, sedated with diazepam (1.5-2.0 mg/kg, I.V) and reassessed via impulse Oscillometry. The swine were again anesthetized with propofol and intubated. When fully sedated, the swine were ventilated, paralyzed with Atracurium Besylate, and post-dive measurements of pulmonary function were recorded. During all phases of study the swine were continuously monitored for signs of seizure or distress.
Baseline and post-dive assessments of pulmonary compliance were conducted on each animal enrolled in the study. […] These values were expressed as percent change from baseline.

[2] = system: swine exposed to 2.5 ATA hyperbaric oxygen for 5.5 hr; test: Experiment 2 deep exposure simulation: pulmonary compliance
Description: Experiment 2 is designed to evaluate the efficacy of tiotropium bromide pre-dive with respect to reducing decrements in pulmonary function due to PO2T following a 5.5 hour, 2.5 ATA hyperbaric oxygen exposure. This dive profile was selected because it caused the most significant pulmonary function deficits in humans with minimal risk of seizure due to CNS oxygen toxicity.
Pulmonary function testing: The swine had disposable prewired electrodes adhered to the dermis over the gluteal muscle and a train of four (TOF) stimulation was initiated to confirm proper placement and twitch using a DigiStim III Peripheral Nerve Stimulator (Neuro Technology Inc., Kerrville, Tex.). Atracurium besylate (50 mg, IV) (hospira, Lake Forest, Ill.) was injected into the ear vein catheter, and the swine was observed until cessation of muscle twitch with TOFs. The swine was then disconnected from the ventilator circuit, allowed to passively exhale, and connected to an O2 filled 3 L super syringe (Hamilton Company, Reno, Nev.) attached to a pressure gauge (OMEGA®, Norwalk, Conn.), and pneumotachometer (Harvard Apparatus, Holliston, Mass.). Oxygen was introduced in 100 ml increments every 3 seconds until a static pressure of 40 cm H2O was reached. The lungs were then deflated in 100 ml increments until a static pressure of −40 cm H2O. The swine was then reconnected to the ventilator and ventilated for 2 minutes before repeating the insufflation and exhalation maneuvers and measurements one more time. […] After the above measurements, swine received either nebulized Tiotropium (18 μg dissolved in saline) or an equal volume of 0.9% saline through the breathing circuit over the course of 15 minutes. The propofol infusion was then stopped, the animals were then monitored until a swallow reflex was observed then extubated. The swine were then transported to the hyperbaric chamber suite and allowed to recover until capable of standing.
Hyperbaric Exposures: Individual animals were then placed into a Plexiglas box (30 in.×42 in.×38 in., manufactured in-house) within a Multiple Large Animal Chamber (MLAC), which is a steel-hulled hyperbaric chamber (450-cubic ft. floodable volume and pressure tested to 1,230 feet of seawater [fsw] equivalent) (Bethlehem Steel Corp, Bethlehem Pa.). Pressure/depth was monitored by a CPG 2500 Digital Pressure Gauge (Mensor Corp., San Marcos, Tex.). Swine were dove in pairs with each treatment group represented. Swine box assignment was alternated with respect to treatment to avoid any effects associated with individual box environmental features. Animals were monitored via closed-circuit television to observe signs of distress related to middle ear barotrauma (e.g. head shaking, nystagmus) and seizure activity. Oxygen concentration was measured and recorded using a portable O2 analyzer (Teledyne Analytical Inst, City of Industry, Calif.). After positioning the animal inside the Plexiglas box, the MLAC was sealed and pressurized using air at the rate of I ATA/minute to a depth of 2.5 ATA. After 2.5 min at a bottom depth equivalent to 2.5 ATA, the breathing gas was switched to 100% O2 and maintained for 5.5 Hrs. After completing 5.5 Hrs on 100% O2, the inspired gas was switched back to air for 3 min. Then, the chamber was decompressed at 1 ATA/minute. Upon reaching surface the animal was transported to the surgical suite for post-dive ECG and pulmonary function measurements (identical to the pre-dive procedures). […]

[3] = system: swine exposed to 1.5 ATA hyperbaric oxygen for 17.5 hr; test: Experiment 1: adverse effects observation
Description: as §1
Once measurements were complete, animals were then euthanized by intravenous infusion of euthanasia solution (Euthasol 1-1.5 ml/10 lbs. body weight) and transported to the necropsy suite for post-mortem sample collection.

C[N+]1(C)[C@@H]2C[C@@H](OC(=O)C(O)(c3cccs3)c3cccs3)C[C@H]1[C@@H]1O[C@@H]12 [Tiotropium, tiotropium bromide]
Vital Capacity, Saline vs Tiotropium ([1]; p=0.394): no significant differences | Expiratory Reserve Volume, Saline vs Tiotropium ([1]; p=0.445): no significant differences | Inspiratory capacity, Saline vs Tiotropium ([1]; p=0.879): no significant differences | pulmonary compliance, inspiratory arm, post-exposure vs baseline ([2]; 2.5 ATA O2 5.5 hr, 1st set of measurements, n=7, p=0.1999): no significant difference | expiratory compliance, post-exposure vs baseline ([2]; 2.5 ATA O2 5.5 hr, 1st set of measurements, n=7, p=0.5711): did not exhibit any decrement | pulmonary compliance, expiratory arm, post-exposure vs baseline ([2]; 2.5 ATA O2 5.5 hr, 2nd set of measurements, n=9, p=0.0438): significant decrement | pulmonary compliance, inspiratory arm, post-exposure vs baseline ([2]; 2.5 ATA O2 5.5 hr, 2nd set of measurements, n=9, p=0.7388): no significant change | pulmonary compliance after hyperbaric oxygen exposure ([2]; 2.5 ATA for 5.5 hrs, 18 μg inhaled, nebulized, prophylactic, p=0.9094): no decrement in pulmonary compliance; also recorded: no change | adverse effect on outcome at any of the assessed endpoints ([3]; 1.5 ATA O2 17.5 hr, 18 mcg nebulized pre-dive): no observable adverse effect | adverse reactions (including seizure) ([3]; 1.5 ATA oxygen exposure): no adverse reactions
